Measured values as given in article PMC11005723, “Development of Complementary Photo‐arginine/lysine to Promote Discovery of Arg/Lys hPTMs Interactomes” (Advanced Science, 2024).
Non-standard residues stand in square brackets, D forms with d. No end group written: not given here. *: point of attachment. Biotin = O=C1N[C@H]2[C@H](CS[C@H]2CCCCC(=O)*)N1; R(dz) = photo-arginine

System: HEK293T nuclear lysates
Experiment: SILAC‐based pull‐down proteomics H4K5me1/H4K5 (probes 6/5)
Format: binding, human
Conditions: for B6 log2 (H4K5me/H4K5): run B6; for C6 log (H4K5me/H4K5): run C6

probe 6: H4K5me peptide probe with photo‐arginine R(dz) and K(biotin) (SG[R(dz)]GK(Me)GGKGLGKGGK(Biotin))
proteins recruited (SILAC proteomics H4K5me1/H4K5) (10 µµ probe, 365 nm UV 30 min, streptavidin enrichment, n = 2): could recruit L3MBTL2
B6 log2 (H4K5me/H4K5) (protein A0A0B4J1Z1 SRSF7): 0.2308
C6 log (H4K5me/H4K5) (protein A0A0B4J1Z1 SRSF7): 0.1007
B6 log2 (H4K5me/H4K5) (protein A0A0C4DG89 DDX46): 0.248
C6 log (H4K5me/H4K5) (protein A0A0C4DG89 DDX46): 0.4939
B6 log2 (H4K5me/H4K5) (protein A0A0C4DG98 THOC2): 0.2302
C6 log (H4K5me/H4K5) (protein A0A0C4DG98 THOC2): -0.4085
B6 log2 (H4K5me/H4K5) (protein A0A2R8Y5G6 DDX3X): 0.1671
C6 log (H4K5me/H4K5) (protein A0A2R8Y5G6 DDX3X): 0.08362
B6 log2 (H4K5me/H4K5) (protein A0A2R8Y855 SMARCE1): 0.1691
C6 log (H4K5me/H4K5) (protein A0A2R8Y855 SMARCE1): 0.1589
B6 log2 (H4K5me/H4K5) (protein A0A087WWS1 THOC1): 0.1897
C6 log (H4K5me/H4K5) (protein A0A087WWS1 THOC1): 0.01015
B6 log2 (H4K5me/H4K5) (protein A0A087X2G1 DDX1): 0.2376
C6 log (H4K5me/H4K5) (protein A0A087X2G1 DDX1): 0.1483
B6 log2 (H4K5me/H4K5) (protein B1AK87 CAPZB): 0.2362
C6 log (H4K5me/H4K5) (protein B1AK87 CAPZB): 0.1912
B6 log2 (H4K5me/H4K5) (protein C9JFR7 CYCS): 0.1664
C6 log (H4K5me/H4K5) (protein C9JFR7 CYCS): 0.2306
B6 log2 (H4K5me/H4K5) (protein E5RJR5 SKP1): 0.2613
C6 log (H4K5me/H4K5) (protein E5RJR5 SKP1): 0.4362
B6 log2 (H4K5me/H4K5) (protein E9PCY7 HNRNPH1): 0.1643
C6 log (H4K5me/H4K5) (protein E9PCY7 HNRNPH1): -0.04567
B6 log2 (H4K5me/H4K5) (protein E9PHA2 NCAPH): 0.2207
C6 log (H4K5me/H4K5) (protein E9PHA2 NCAPH): -0.3454
B6 log2 (H4K5me/H4K5) (protein F5GYN4 OTUB1): 0.1534
C6 log (H4K5me/H4K5) (protein F5GYN4 OTUB1): -0.02948
B6 log2 (H4K5me/H4K5) (protein F5H8F7 ASH2L): 0.1889
C6 log (H4K5me/H4K5) (protein F5H8F7 ASH2L): 0.02508
B6 log2 (H4K5me/H4K5) (protein F8VRQ1 HNRNPA1): 0.2132
C6 log (H4K5me/H4K5) (protein F8VRQ1 HNRNPA1): 0.1279
B6 log2 (H4K5me/H4K5) (protein G3V4C1 HNRNPC): 0.1754
C6 log (H4K5me/H4K5) (protein G3V4C1 HNRNPC): 0.1012
B6 log2 (H4K5me/H4K5) (protein G3V529 DDX24): 0.1507
C6 log (H4K5me/H4K5) (protein G3V529 DDX24): -0.9684
B6 log2 (H4K5me/H4K5) (protein J3KTA4 DDX5): 0.1484
C6 log (H4K5me/H4K5) (protein J3KTA4 DDX5): 0.164
B6 log2 (H4K5me/H4K5) (protein M0R3H0 RPS16): 0.2369
C6 log (H4K5me/H4K5) (protein M0R3H0 RPS16): -0.3242
B6 log2 (H4K5me/H4K5) (protein O00567 NOP56): 0.2329
C6 log (H4K5me/H4K5) (protein O00567 NOP56): 0.2086
B6 log2 (H4K5me/H4K5) (protein O14980 XPO1): 0.2117
C6 log (H4K5me/H4K5) (protein O14980 XPO1): -0.03544
B6 log2 (H4K5me/H4K5) (protein O15042 U2SURP): 0.1992
C6 log (H4K5me/H4K5) (protein O15042 U2SURP): 0.3265
B6 log2 (H4K5me/H4K5) (protein O43143 DHX15): 0.2048
C6 log (H4K5me/H4K5) (protein O43143 DHX15): 0.2816
B6 log2 (H4K5me/H4K5) (protein O43290 SART1): 0.229
C6 log (H4K5me/H4K5) (protein O43290 SART1): 0.0852
B6 log2 (H4K5me/H4K5) (protein O43395 PRPF3): 1.011
C6 log (H4K5me/H4K5) (protein O43395 PRPF3): 1.011
B6 log2 (H4K5me/H4K5) (protein O43491 EPB41L2): 0.1873
C6 log (H4K5me/H4K5) (protein O43491 EPB41L2): 0.1809
B6 log2 (H4K5me/H4K5) (protein O43719 HTATSF1): 0.2156
C6 log (H4K5me/H4K5) (protein O43719 HTATSF1): 0.1171
B6 log2 (H4K5me/H4K5) (protein O43929 ORC4): 0.2071
C6 log (H4K5me/H4K5) (protein O43929 ORC4): 0.2724
B6 log2 (H4K5me/H4K5) (protein O60216 RAD21): 0.1881
C6 log (H4K5me/H4K5) (protein O60216 RAD21): 0.2602
B6 log2 (H4K5me/H4K5) (protein O60934 NBN): 0.1747
C6 log (H4K5me/H4K5) (protein O60934 NBN): 0.1942
B6 log2 (H4K5me/H4K5) (protein O75525 KHDRBS3): 0.1909
C6 log (H4K5me/H4K5) (protein O75525 KHDRBS3): 0.05512
B6 log2 (H4K5me/H4K5) (protein O95202 LETM1): 0.2397
C6 log (H4K5me/H4K5) (protein O95202 LETM1): 0.3564
B6 log2 (H4K5me/H4K5) (protein O95218 ZRANB2): 0.1711
C6 log (H4K5me/H4K5) (protein O95218 ZRANB2): 0.2764
B6 log2 (H4K5me/H4K5) (protein O95456 PSMG1): 0.8105
C6 log (H4K5me/H4K5) (protein O95456 PSMG1): 0.8105
B6 log2 (H4K5me/H4K5) (protein O95983 MBD3): 0.1485
C6 log (H4K5me/H4K5) (protein O95983 MBD3): 0.1715
B6 log2 (H4K5me/H4K5) (protein P06748 NPM1): 0.1928
C6 log (H4K5me/H4K5) (protein P06748 NPM1): 0.1848
B6 log2 (H4K5me/H4K5) (protein P07900 HSP90AA1): 0.1623
C6 log (H4K5me/H4K5) (protein P07900 HSP90AA1): 0.0357
B6 log2 (H4K5me/H4K5) (protein P09661 SNRPA1): 0.1608
C6 log (H4K5me/H4K5) (protein P09661 SNRPA1): 0.0265
B6 log2 (H4K5me/H4K5) (protein P11142 HSPA8): 0.1602
C6 log (H4K5me/H4K5) (protein P11142 HSPA8): 0.128
B6 log2 (H4K5me/H4K5) (protein P11388 TOP2A): 0.1715
C6 log (H4K5me/H4K5) (protein P11388 TOP2A): -0.2242
B6 log2 (H4K5me/H4K5) (protein P12004 PCNA): 0.186
C6 log (H4K5me/H4K5) (protein P12004 PCNA): 0.08942
B6 log2 (H4K5me/H4K5) (protein P19338 NCL): 0.2437
C6 log (H4K5me/H4K5) (protein P19338 NCL): 0.2101
B6 log2 (H4K5me/H4K5) (protein P22061 PCMT1): 0.8673
C6 log (H4K5me/H4K5) (protein P22061 PCMT1): 0.8673
B6 log2 (H4K5me/H4K5) (protein P22087 FBL): 0.1734
C6 log (H4K5me/H4K5) (protein P22087 FBL): 0.2534
B6 log2 (H4K5me/H4K5) (protein P22102 GART): 0.1557
C6 log (H4K5me/H4K5) (protein P22102 GART): -0.03854
B6 log2 (H4K5me/H4K5) (protein P25398 RPS12): 0.2482
C6 log (H4K5me/H4K5) (protein P25398 RPS12): 0.204
B6 log2 (H4K5me/H4K5) (protein P29692 EEF1D): 0.1672
C6 log (H4K5me/H4K5) (protein P29692 EEF1D): -0.1339
B6 log2 (H4K5me/H4K5) (protein P31153 MAT2A): 0.1703
C6 log (H4K5me/H4K5) (protein P31153 MAT2A): 0.05667
B6 log2 (H4K5me/H4K5) (protein P42166 TMPO): 0.2154
C6 log (H4K5me/H4K5) (protein P42166 TMPO): 0.1594
B6 log2 (H4K5me/H4K5) (protein P46109 CRKL): 0.2247
